Test results as given in patent US7211594B2, “Indazole compounds and compositions thereof as JNK inhibitors and for the treatment of diseases associated therewith” (Signal Pharmaceuticals, LLC, priority 2000, dated 2007).

Row | melting point | SMILES
1 | 172 to 173 °C | COc1ccc(-c2n[nH]c3ccc([N+](=O)[O-])cc23)cc1OC [Example 23, 3-(3,4-Dimethoxyphenyl)-5-nitro-1H-indazole]
2 | 150 °C (dec.) | COc1ccc(-c2n[nH]c3ccc(N)cc23)cc1OC.O=C(O)C(F)(F)F
3 | 126 °C | Fc1ccc(-c2n[nH]c3ccccc23)cc1 [Example 4, 3-(4-Fluorophenyl)-1H-indazole]
4 | 240 °C (dec.) | COc1ccc(-c2n[nH]c3ccc(N)cc23)cc1.Cl [Example 34, 5-Amino-3-(4-methoxyphenyl)-1H-indazole Hydrochloride]
5 | 152 °C | FC(F)(F)c1ccc2[nH]nc(-c3ccccc3)c2c1 [Example 5, 3-Phenyl-5-trifluoromethyl-1H-indazole]
6 | 104 °C | Nc1ccc2[nH]nc(-c3ccccc3)c2c1 [Example 8, 5-Amino-3-phenyl-1H-indazole]
7 | 249 to 251 °C | O=[N+]([O-])c1cccc(-c2n[nH]c3ccc([N+](=O)[O-])cc23)c1
8 | 185 to 186 °C | O=[N+]([O-])c1ccc2[nH]nc(-c3ccccc3)c2c1 [Example 7, 5-Nitro-3-phenyl-1H-indazole]
9 | 124 to 125 °C | Fc1ccc2[nH]nc(-c3ccccc3)c2c1 [Example 6, 5-Fluoro-3-phenyl-1H-indazole]
10 | 153 °C | COc1ccc(-c2n[nH]c3ccc([N+](=O)[O-])cc23)cc1 [Example 21, 3-(4-Methoxyphenyl)-5-nitro-1H-indazole]
11 | 99 °C | COc1ccccc1-c1n[nH]c2ccccc12 [Example 3, 3-(2-Methoxyphenyl)-1H-indazole]
